The target of assay [1] is T1, Vitamin D3 receptor (Homo sapiens) (UniProt P11473).
T1 sequence (whole entry): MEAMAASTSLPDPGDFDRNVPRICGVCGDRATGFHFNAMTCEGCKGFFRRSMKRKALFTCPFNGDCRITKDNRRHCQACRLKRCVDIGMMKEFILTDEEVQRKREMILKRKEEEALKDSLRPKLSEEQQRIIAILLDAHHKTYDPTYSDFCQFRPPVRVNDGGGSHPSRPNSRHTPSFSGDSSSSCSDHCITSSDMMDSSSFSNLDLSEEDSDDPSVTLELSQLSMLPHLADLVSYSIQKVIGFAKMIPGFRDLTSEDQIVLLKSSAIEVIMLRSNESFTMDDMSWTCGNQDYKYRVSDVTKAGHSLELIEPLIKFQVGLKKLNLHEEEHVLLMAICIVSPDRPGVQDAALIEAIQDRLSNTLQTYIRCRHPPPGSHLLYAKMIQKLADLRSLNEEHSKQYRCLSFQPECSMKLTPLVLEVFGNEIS
In words: Binding affinity to human full-length Vitamin D receptor assessed as relative binding affinity at 1 uM incubated for 2 hrs by fluorescence polarization based competitive binding assay relative to calcipotriol. To be noted: filed as agonist.

For assay [2], the system named is Mus musculus. The assay can be described thus: Anti-fibrotic effect in improving CCl4-induced hepatic fibrosis C57BL/6 mouse model assessed as inhibition of Ctgf expression in liver at 500 ug/kg, po five times a week for 2 weeks by RT-qPCR analysis. To be noted: dose 500.0 µg/kg. Format: functional, organism-based.
The subject of assay [3] is Mus musculus. In words: Anti-fibrotic effect in CCl4-induced hepatic fibrosis C57BL/6 mouse model assessed as reduction in hepatic fibrosis lesions at 500 ug/kg, po five times a week for 2 weeks by Hematoxylin-Eosin (H&E) staining based assay. In kind it is functional, organism-based. To be noted: dose 500.0 µg/kg.
Assay [4] concerns Mus musculus. The assay can be described thus: Anti-fibrotic effect in CCl4-induced hepatic fibrosis C57BL/6 mouse model assessed as inhibition of proliferation of fibrous tissue at 500 ug/kg, po five times a week for 2 weeks by Hematoxylin-Eosin (H&E) staining based assay. In kind it is functional, organism-based. To be noted: dose 500.0 µg/kg.
The test system of assay [5] is Mus musculus. In words: Anti-fibrotic effect in CCl4-induced hepatic fibrosis C57BL/6 mouse model assessed as inhibition of serum AST level at 500 ug/kg, po five times a week for 2 weeks. To be noted: dose 500.0 µg/kg. Format: functional, organism-based.
For assay [6], the system named is Mus musculus. The assay can be described thus: Anti-fibrotic effect in CCl4-induced hepatic fibrosis C57BL/6 mouse model assessed as inhibition of serum total bile acid (TBA) level at 500 ug/kg, po five times a week for 2 weeks. To be noted: dose 500.0 µg/kg. Format: functional, organism-based.
Assay [7] concerns Mus musculus. In words: Anti-fibrotic effect in bile duct ligation (BDL) surgery-induced hepatic fibrosis C57BL/6 mouse model assessed as inhibition of collagen deposition in liver at 500 ug/kg, po five times a week for 2 weeks by Hematoxylin-Eosin (H&E) staining based assay. Format: functional, organism-based. To be noted: dose 500.0 µg/kg.
Assay [8] relates to Mus musculus. In words: Anti-fibrotic effect in bile duct ligation (BDL) surgery-induced hepatic fibrosis C57BL/6 mouse model assessed as inhibition of collagen deposition in liver at 500 ug/kg, po five times a week for 2 weeks by Masson's Trichrome […] staining based assay. In kind it is functional, organism-based. The following applies: dose 500.0 µg/kg.
In assay [9] the test system is Mus musculus. In words: Anti-fibrotic effect in bile duct ligation (BDL) surgery-induced hepatic fibrosis C57BL/6 mouse model assessed as reduction the lesions at 500 ug/kg, po five times a week for 2 weeks by Hematoxylin-Eosin (H&E) staining based assay. In kind it is functional, organism-based. To be noted: dose 500.0 µg/kg.

Active and inactive are the calls of the source. The rule behind the calls is not given here.

With `OCc1ccc(/C=C/c2ccc(OCCCC(F)(F)F)cc2)cc1CO`, the RBA in assay [1] was 51.4%. The result in the assay with Mus musculus [2], in the assay with Mus musculus [3], in the assay on Mus musculus [4], in the assay with Mus musculus [5], in the assay with Mus musculus [6] and in the assay on Mus musculus [7] was Active. Further, the result in the assay with Mus musculus [8] and in the assay on Mus musculus [9] was Active.

For the origin of these results see ChEMBL document CHEMBL5620415, “Design, synthesis and anti-hepatic fibrosis activity of novel diphenyl vitamin D receptor agonists” (Eur J Med Chem, 2023).
